System: HIV-1 pseudotyped virus
Experiment: HIV-1 pseudotyped virus assay (luciferase reporter gene, single cycle of infection)
Format: cell-based
Details: Human immunodeficiency virus 1, CCR5, 72 h, read-out: Activity (antiviral activity, IC50)
From the text: In this example are illustrated experimental procedures for determining biological activity, such as antiviral activity. For determining biological activity, an HIV-1 infection assay was used to determine the antiviral potency for compounds of the present invention.
For determining biological activity, an HIV-1 pseudotyped virus assay was used to determine the respective antiviral potencies of each compound tested in the assay for comparison. The pseudotyped assay scores for a reduction in infection as indicated by decreased signal from the reporter gene encoding a luciferase enzyme (“reporter gene”). The assay employs cell lines expressing CD4 and either of the primary chemokine receptors (CCR5 or CXCR4) that HIV uses as a co-receptor (“target cells”). Pseudotyped virus was prepared by co-transfection of 293T cells with: 1) a plasmid construct carrying the HIV-1 envelope of choice, in combination with 2) a pseudotyped virus backbone construct in which (a) envelope expression has been abrogated due to a frameshift in the envelope sequence, and (b) the reporter gene replaces nef. Expression of HIV-1 envelope on 293T packaging cells results in the production of a pseudotyped virus carrying the reporter gene that is capable of a single cycle of infection.
The compounds of the present invention being tested for antiviral activity were serially diluted and dose responses determined in duplicate in two separate experiments. The compounds to be tested were added directly to the plated, target cells, followed by the addition of pseudotyped virus described above. The cells were cultured for three days prior harvest. Media and compound were removed, the cell monolayer was washed, lysed by detergent, and then frozen at −80 degrees C. for a minimum of 30 minutes. Following thawing and acclimation to room temperature, luciferase production was quatified by injecting 100 […]I of a substrate (of the enzyme encoded by the reporter gene) into each well followed by detecting the signal (light emitted from the interaction between the enzyme and substrate) after 5 seconds. In the pseudotyped assay, a 50% reduction in signal is significant, and provides the primary cutoff value for assessing antiviral activity (“IC50” is defined as the dilution resulting in a 50% reduction in enzymatic activity as interpolated from a titration curve). Representative compounds according to the present invention, and their antiviral activity, are illustrated in Table 3.

| SMILES | IC50 |
| --- | --- |
| C[C@@H]1CN(C(=O)c2ccccc2)CCN1C(=O)C(=O)c1ccc(-c2cnco2)cc1 [Example 101, 1-((R)-4-Benzoyl-2-methyl-piperazin-1-yl)-2-(4-oxazol-5-yl-phenyl)-ethane-1,2-dione] | < 5 µM |
| Cc1cc(-c2ccc(C(=O)C(=O)N3CCN(C(=O)c4ccccc4)C[C@H]3C)cc2)on1 [Example 102, 1-((R)-4-Benzoyl-2-methyl-piperazin-1-yl)-2-[4-(3-methyl-isoxazol-5-yl)-phenyl]-ethane-1,2-dione] | < 5 µM |
| C[C@@H]1CN(C(=O)c2ccccc2)CCN1C(=O)C(=O)c1ccc(-c2nccs2)cc1 [Example 103, 1-((R)-4-Benzoyl-2-methyl-piperazin-1-yl)-2-(4-thiazol-2-yl-phenyl)-ethane-1,2-dione] | < 5 µM |
| Cc1nc(-c2ccc(C(=O)C(=O)N3CCN(C(=O)c4ccccc4)C[C@H]3C)cc2)cs1 [Example 104, 1-((R)-4-Benzoyl-2-methyl-piperazin-1-yl)-2-[4-(2-methyl-thiazol-4-yl)-phenyl]-ethane-1,2-dione] | > 5 µM |
| C[C@@H]1CN(C(=O)c2ccccc2)CCN1C(=O)C(=O)c1ccc(-c2nnn(C)n2)cc1 [Example 105, 1-((R)-4-Benzoyl-2-methyl-piperazin-1-yl)-2-[4-(2-methyl-2H-tetrazol-5-yl)-phenyl]-ethane-1,2-dione] | < 5 µM |
| CO/N=C(\c1ccccc1)N1CCN(C(=O)C(=O)c2ccc(-c3cnco3)cc2)[C@H](C)C1 [Example 106, 1-((R)-4-{[Methoxyimino]-phenyl-methyl}-2-methyl-piperazin-1-yl)-2-(4-oxazol-5-yl-phenyl)-ethane-1,2-dione] | < 5 µM |
| Cc1noc(-c2ccc(S(=O)(=O)N3CCN(C(=O)c4ccccc4)CC3C)s2)n1 (centres unmarked) [Example 107, {3-Methyl-4-[5-(3-methyl-[1,2,4]oxadiazol-5-yl)-thiophene-2-sulfonyl]-piperazin-1-yl}-phenyl-methanone] | > 5 µM |
| CON(C)C(=O)c1ccc(S(=O)(=O)N2CCN(C(=O)c3ccccc3)CC2C)s1 (centres unmarked) [Example 108, 5-(4-Benzoyl-2-methyl-piperazine-1-sulfonyl)-thiophene-2-carboxylic acid methoxy-methyl-amide] | < 5 µM |
| CC1CN(C(=O)c2ccccc2)CCN1S(=O)(=O)c1ccc(-n2cncn2)s1 (centres unmarked) [Example 109, [3-Methyl-4-(5-[1,2,4]triazol-1-yl-thiophene-2-sulfonyl)-piperazin-1-yl]-phenyl-methanone] | > 5 µM |
| CC1CN(C(=O)c2ccccc2)CCN1S(=O)(=O)c1ccc(C(=O)c2ccco2)s1 (centres unmarked) [Example 110, {4-[5-(Furan-2-carbonyl)-thiophene-2-sulfonyl]-3-methyl-piperazin-1-yl}-phenylmethanone] | > 5 µM |
| CC1CN(C(=O)c2ccccc2)CCN1S(=O)(=O)c1ccc(C(=O)c2cnc[nH]2)s1 (centres unmarked) [Example 111, {4-[5-(3H-Imidazole-4-carbonyl)-thiophene-2-sulfonyl]-3-methyl-piperazin-1-yl}-phenyl-methanone] | > 5 µM |
| CC1CN(C(=O)c2ccccc2)CCN1S(=O)(=O)c1ccc(C(=O)c2ccon2)s1 (centres unmarked) [Example 112, {4-[5-(Isoxazole-3-carbonyl)-thiophene-2-sulfonyl]-3-methyl-piperazin-1-yl}-phenyl-methanone] | > 5 µM |
| CC1CN(C(=O)c2ccccc2)CCN1S(=O)(=O)c1cccc(-n2ccnn2)c1 (centres unmarked) [Example 113, [3-Methyl-4-(3-[1,2,3]triazol-1-yl-benzenesulfonyl)-piperazin-1-yl]-phenyl-methanone] | > 5 µM |
| CC1CN(C(=O)c2ccccc2)CCN1S(=O)(=O)c1cccc(-n2cncn2)c1 (centres unmarked) [Example 114, [3-Methyl-4-(3-[1,2,4]triazol-1-yl-benzenesulfonyl)-piperazin-1-yl]-phenyl-methanone] | > 5 µM |
| CC1CN(C(=O)c2ccccc2)CCN1S(=O)(=O)c1cccc(-n2cccn2)c1 (centres unmarked) [Example 115, [3-Methyl-4-(3-pyrazol-1-yl-benzenesulfonyl)-piperazin-1-yl]-phenyl-methanone] | > 5 µM |
| CC1CN(C(=O)c2ccccc2)CCN1S(=O)(=O)c1ccc(-n2ccnn2)cc1 (centres unmarked) [Example 116, [3-Methyl-4-(4-[1,2,3]triazol-1-yl-benzenesulfonyl)-piperazin-1-yl]-phenyl-methanone] | > 5 µM |

| SMILES | IC50 |
| --- | --- |
| CC1CN(C(=O)c2ccccc2)CCN1S(=O)(=O)c1ccc(-n2nccn2)cc1 (centres unmarked) [Example 117, [3-methyl-4-(4-[1,2,3]triazol-2-yl-benzenesulfonyl)-piperazin-1-yl]-phenyl-methanone] | > 5 µM |
| CC1CN(C(=O)c2ccccc2)CCN1S(=O)(=O)c1ccc(-n2cncn2)cc1 (centres unmarked) [Example 118, [3-Methyl-4-(4-[1,2,4]triazol-1-yl-benzenesulfonyl)-piperazin-1-yl]-phenyl-methanone] | > 5 µM |
| CC1CN(C(=O)c2ccccc2)CCN1S(=O)(=O)c1ccc(-n2cccn2)cc1 (centres unmarked) [Example 119, [3-Methyl-4-(4-pyrazol-1-yl-benzenesulfonyl)-piperazin-1-yl]-phenyl-methanone] | > 5 µM |
| C[C@@H]1CN(C(=O)c2ccccc2)CCN1S(=O)(=O)c1ccc(-c2c[nH]nn2)cc1 [Example 120, {(R)-3-Methyl-4-[4-(1H-[1,2,3]triazol-4-yl)-benzenesulfonyl]-piperazin-1-yl)-phenyl-methanone] | < 5 µM |
| CC(C)Cn1cc(-c2ccc(S(=O)(=O)N3CCN(C(=O)c4ccccc4)C[C@H]3C)cc2)nn1 [Example 121, {(R)-4-[4-(1-Isobutyl-1H-[1,2,3]triazol-4-yl)-benzenesulfonyl]-3-methyl-piperazin-1-yl}-phenyl-methanone] | > 5 µM |
| C[C@@H]1CN(C(=O)c2ccccc2)CCN1S(=O)(=O)c1ccc(-c2cn(Cc3ccccc3)nn2)cc1 [Example 122, [(R)-4-[4-(1-Benzyl-1H-[1,2,3]triazol-4-yl)-benzenesulfonyl]-3-methyl-piperazine-1-yl}-phenyl-methanone] | > 5 µM |
| CC(=O)c1ccc(-n2cc(-c3ccc(S(=O)(=O)N4CCN(C(=O)c5ccccc5)C[C@H]4C)cc3)nn2)cc1 [Example 123] | > 5 µM |
| C[C@@H]1CN(C(=O)c2ccccc2)CCN1S(=O)(=O)c1ccc(-c2cc(-c3ccccc3)no2)cc1 [Example 124, {(R)-3-Methyl-4-[4-(3-phenyl-isoxazol-5-yl)-benzenesulfonyl]-piperazin-yl}-phenyl-methanone] | > 5 µM |
| C[C@@H]1CN(C(=O)c2ccccc2)CCN1S(=O)(=O)c1ccc(-c2c[nH]nn2)s1 [Example 125, {(R)-3-Methyl-4-[5-(1H-[1,2,3]triazol-4-yl)-thiophene-2-sulfonyl]-piperazin-1-yl}-phenyl-methanone] | > 5 µM |
| C[C@@H]1CN(C(=O)c2ccccc2)CCN1S(=O)(=O)c1ccc(-c2cn(Cc3ccccc3)nn2)s1 [Example 127, {(R)-4-[5-(1-Benzyl-1H-[1,2,3]triazol-4-yl)-thiophene-2-sulfonyl]-3-methyl-piperazin-1-yl}-phenyl-methanone] | > 5 µM |
| CC(=O)c1ccc(-n2cc(-c3ccc(S(=O)(=O)N4CCN(C(=O)c5ccccc5)C[C@H]4C)s3)nn2)cc1 [Example 128] | > 5 µM |
| Cc1c[nH]c(-n2cc(-c3ccc(S(=O)(=O)N4CCN(C(=O)c5ccccc5)C[C@H]4C)s3)nn2)n1 [Example 129, ((R)-3-Methyl-4-{5-[1-(4-methyl-1H-imidazol-2-yl)-1H-[1,2,3]triazol-4-yl]-thiophene-2-sulfonyl}-piperazin-1-yl)-phenyl-methanone] | > 5 µM |
| CCOC(=O)c1sc(SC)nc1-n1cc(-c2ccc(S(=O)(=O)N3CCN(C(=O)c4ccccc4)C[C@H]3C)s2)nn1 [Example 130, 4-{4-[5-((R)-4-Benzoyl-2-methyl-piperazine-1-sulfonyl)-thiophen-2-yl]-[1,2,3]triazol-1-yl}-2-methylsulfanyl-thiazole-5-carboxylic acid ethyl ester] | > 5 µM |
| C[C@@H]1CN(C(=O)c2ccccc2)CCN1S(=O)(=O)c1ccc(-c2cc(-c3ccccc3)no2)s1 [Example 131, {(R)-3-Methyl-4-[5-(3-phenyl-sioxazol-5-yl)-thiophene-2-sulfonyl]-piperazin-1-yl}-phenyl-methanone] | > 5 µM |
| C[C@@H]1CN(C(=O)c2ccccc2)CCN1S(=O)(=O)c1ccc(-c2cc(C(=O)c3ccc(Cl)cc3)no2)s1 [Example 132, ((R)-4-{5-[3-(4-Chloro-benzoyl)-isoxazol-5-yl]-thiophene-2-sulfonyl}-3-methyl-piperazin-1-yl)-phenyl-methanone] | > 5 µM |
| C[C@@H]1CN(C(=O)c2ccccc2)CCN1S(=O)(=O)c1ccc(-n2cccn2)cc1 [Example 133, [(R)-3-methyl-4-(4-pyrazole-1-yl-benzenesulfonyl)-piperazin-1-yl]-phenyl-methanone] | > 5 µM |

Source: patent US20070259879A1, “Piperazine and piperidine biaryl derivatives” (priority 2006, published 2007)
